From US10017734B2, “Method for producing dopaminergic neurons” (TAKEDA PHARMACEUTICAL COMPANY LIMITED, priority 2013, dated 2018)

Assays:
Type in all cases: cell-based
[1] = system: cryopreserved day 26 cells induced from human iPS cell (253G1 strain, 201B7 strain); assay: Dopaminergic neuron marker expression by quantitative RT-PCR 2 weeks after thawing of cells cryopreserved on day 26; conditions: Y27632 10 μM
Description: Midbrain floor plate cells were induced by a method similar to the methods described in Reference Examples 1 to 3, the medium was exchanged with Neuro/B27 added with 0.1 mM ascorbic acid, 0.5 mM dbcAMP, 3 μM PD0325901, and 20 ng/ml activin A (R&D) on day 12 of culture, and the cells were cultured for 14 days more (total 26 days). After culture, the cells were washed with PBS, and dispersed by treating with Accutase (Innovative Cell Technologies) at 37° C. for 20-30 min. After centrifugal washing, the cells were suspended in cell banker 2 (Juji Field Inc.) at a concentration of about 2×10^6 cells/ml/tube, and cryopreserved at −80° C. The cryopreserved cells were thawed by immersion in a thermostatic tank at 37° C. and, after centrifugal washing, seeded in a 96 well plate at a density of 2×10^4 cells per well, and cultured at 37° C. under 5% CO2 for 2 weeks. As the above-mentioned 96 well plate, one coated at 37° C. overnight with Matrigel 1/30-1/40 diluted with DMEM/F12 (Life Technologies Corporation) or Laminin (Trevigen Inc.) diluted with DMEM/F12 at a concentration of 10 μg/ml was used. As the culture medium, Neuro/B27 added with one or more kinds of 0.1 mM ascorbic acid, 0.5 mM dbcAMP, 3 μM PD0325901, and 20 ng/ml activin A, or Neuro/B27 without addition of ascorbic acid, dbcAMP, PD0325901, and activin A as a control was used. […]

[2] = system: floor plate cells induced from human iPS cell (253G1 strain, 201B7 strain); assay: NURR1 expression by quantitative RT-PCR on day 45 after differentiation of floor plate cells; conditions: 3 μM PD0325901 added in addition to ascorbic acid and dbcAMP
Description: Floor plate cells were induced by a method similar to the methods described in Reference Examples 1 to 3, the medium was exchanged with (A) Neuro/B27 added with 3 factors of 0.1 mM ascorbic acid (SIGMA), 0.5 mM dibutyryl-cAMP (SIGMA, hereinafter to be indicated as dbcAMP) and 3 μM PD0325901, or (B) Neuro/B27 added with 2 factors of 0.1 mM ascorbic acid and 0.5 mM dbcAMP on day 13 of culture, and the cells were cultured at 37° C. under 5% CO2 for not less than 30 days. The medium was exchanged every 3-4 days during the above-mentioned culture periods. On day 45 of culture, the cells were recovered, and expression variation of NURR1 known as a transcription factor extremely important for the differentiation, maturation and maintenance of functions of midbrain dopaminergic neuron was examined.

[3] = system: floor plate cells induced from human iPS cell (253G1 strain, 201B7 strain); assay: Immunofluorescent staining of TH, NURR1 and FOXA2 proteins on days 45-52 of culture; conditions: PD0325901 added to ascorbic acid and dbcAMP (Example 1, (A))
Description: Then, the expression of midbrain dopaminergic neuron markers TH, NURR1 and FOXA2 proteins was examined by immunofluorescent staining using anti-TH antibody, anti-NURR1 antibody and anti-FOXA2 antibody. Floor plate cells were induced by a method similar to the methods described in Reference Examples 1 to 3, differentiation induction was performed by exchanging the medium with (A) Neuro/B27 added with 3 factors of ascorbic acid, dbcAMP and PD0325901, or (B) Neuro/B27 added with 2 factors of ascorbic acid and dbcAMP from day 13 of culture, 4% PFA was added on days 45-52 of culture, and the cells were fixed at room temperature for 30 min. The cells were reacted with anti-TH antibody (AB152, Nihon Millipore K.K.), anti-NURR1 antibody (PP-N1404-00, Perseus Proteomics) and anti-FOXA2 antibody (sc-6544, Santa Cruz) as the primary antibodies, and sequentially reacted with Alexa488-labeled secondary antibody, Alexa568-labeled secondary antibody and Alexa647-labeled secondary antibody, corresponding to the immunized animal of the primary antibody, as the secondary antibodies, and observed under a fluorescence microscope. […]

[4] = system: dopaminergic neuron induced from human iPS cell (253G1 strain, 201B7 strain); assay: Ability to release dopamine by high-KCl stimulation on day 50 of culture; conditions: HBSS with 55 mM KCl vs HBSS
Description: Floor plate cells were induced by a method similar to the methods described in Reference Examples 1 to 3, differentiation induction was performed by exchanging the medium with (A) Neuro/B27 added with 3 factors of ascorbic acid, dbcAMP and PD0325901, or (B) Neuro/B27 added with 2 factors of ascorbic acid and dbcAMP from day 13 of culture, and an ability to release dopamine by stimulation with high-KCl was evaluated on day 50 of culture.
The above-mentioned evaluation was performed as follows. The medium of the cells after differentiation induction was exchanged with Neuro/B27, and the cells were cultured overnight. […] For the analysis, a trace biological sample analysis system and HTEC500 (Eicom Corporation), electrochemical detector EPC-500 (Eicom Corporation) were used, and the amount of dopamine contained in the sample was measured according to the manual of Eicom Corporation (Eicom information No. 25). […] However, when differentiation was induced using the aforementioned (A) Neuro/B27, an increase in the amount of dopamine released by stimulation with high-KCl could be detected with good reproducibility even in a different lot.

[5] = system: floor plate cells induced from human iPS cell (253G1 strain, 201B7 strain); assay: Study of various MEK inhibitors (including FGFR inhibitor): NURR1 expression by quantitative RT-PCR on day 45; conditions: 253G1 strain, added to ascorbic acid and dbcAMP, 3 μM PD0325901, 3 μM PD184352, 10 μM SU5402
Description: Whether midbrain dopaminergic neuron can be induced in a medium containing any of PD184352 (Axon MedChem), SU5402 (FGF receptor (FGFR) inhibitor, Wako Pure Chemical Industries, Ltd.) and PD173074 (FGFR inhibitor, Axon MedChem) instead of PD0325901 in the aforementioned (A) Neuro/B27 was studied.
Floor plate cells were induced by a method similar to the methods described in Reference Examples 1 to 3, the medium was exchanged with Neuro/B27 added with (1) 3 factors of ascorbic acid, dbcAMP and PD0325901, (2) 2 factors of ascorbic acid and dbcAMP, (3) ascorbic acid, dbcAMP and 3 μM PD184352, (4) ascorbic acid, dbcAMP and 10 μM SU5402, or (5) ascorbic acid, dbcAMP and 0.1 μM PD173074 on day 13 of culture, and the cells were cultured at 37° C. under 5% CO2 for not less than 30 days. The medium was exchanged every 3-4 days during the above-mentioned culture periods. On day 45 of culture, the cells were recovered, and expression variation of NURR1 was examined. In 253G1 strain, the expression of NURR1 was elevated by the addition of PD0325901, PD184352 or SU5402 and, in 201B7 strain, the expression of NURR1 was elevated by the addition of all 4 kinds.

[6] = system: floor plate cells induced from human iPS cell (253G1 strain, 201B7 strain); assay: TH and NURR1 expression by quantitative RT-PCR on day 26 of culture; conditions: dbcAMP and activin A
Description: Floor plate cells were induced by a method similar to the methods described in Reference Examples 1 to 3, the medium was exchanged with Neuro/B27 added with one or more kinds of 0.1 mM ascorbic acid, 0.5 mM dbcAMP, 3 μM PD0325901, and 20 ng/ml activin A (R&D), or Neuro/B27 without addition of ascorbic acid, dbcAMP, PD0325901, and activin A as a control on day 12 of culture, and the cells were cultured for 14 days more (total 26 days). The cells after culture were recovered, and the expression variation of TH and NURR1 was examined by a method similar to Reference Example 3. […] On the other hand, when ascorbic acid, dbcAMP and PD0325901 were added, the expression level was lower at the time point of day 26 of culture than the addition of ascorbic acid, dbcAMP and activin A.

[7] = system: human iPS cell (253G1 strain, 201B7 strain); assay: Time-course expression of differentiation markers by quantitative RT-PCR in the three-step differentiation system; conditions: conditions excluding only purmorphamine (-Pur)
Description: In step 1, the cells were cultured in Neuro/B27 added with 0.5 μM LDN193189, 10 μM SB431542, 0.5 μM purmorphamine, 200 ng/ml SHH and 1 μM CHIR99021 for 5 days. In step 2, the cells were cultured in Neuro/B27 added with 0.5 μM LDN193189 and 1 μM CHIR99021 for 8 days (total 13 days). In step 3, the cells were cultured in Neuro/B27 added with 0.1 mM ascorbic acid, 0.5 mM dbcAMP and 3 μM PD0325901 for 32 days (total 45 days). After culture, time-course expression variation of various differentiation markers was measured by a method similar to Reference Example 3.
As a control, the cells were cultured under conditions without addition of a differentiation inducing factor (− in Figure), conditions excluding only SHH (−SHH in Figure) or conditions excluding only purmorphamine (−Pur in Figure). Also, the group subjected to differentiation induction under the conditions shown in FIG. 9 from step 2 onward was studied.

C[C@@H](N)[C@H]1CC[C@H](C(=O)Nc2ccncc2)CC1 [Y27632, (R)-(+)-trans-4-(1-aminoethyl)-N-(4-pyridyl)cyclohexanecarboxamide]
expression levels of the markers, presence or absence of Y27632 [1]: scarcely different

O=C(NOC[C@H](O)CO)c1ccc(F)c(F)c1Nc1ccc(I)cc1F [PD0325901, N-[(2R)-2,3-dihydroxypropoxy]-3,4-difluoro-2-[(2-fluoro-4-iodophenyl)amino]-benzamide]
expression of NURR1 [2]: further elevated highly | staining with NURR1 protein [3]: strongly-positive | increase in the amount of dopamine released by stimulation with high-KCl [4]: stably detected | expression of NURR1 [5]: elevated | expression of TH and NURR1 ([6]; 3 μM PD0325901 added together with ascorbic acid): further elevated highly | expression level of TH and NURR1 ([6]; ascorbic acid, dbcAMP and PD0325901 compared with ascorbic acid): lower

c1ccc2c(Oc3nc(Nc4ccc(N5CCOCC5)cc4)c4ncn(C5CCCCC5)c4n3)cccc2c1 [purmorphamine, N-(4-morpholinophenyl)-2-(1-naphthyloxy)-9-cyclohexyl-9H-purin-6-amine]
expression of FOXA2 [7]: low
